From patent publication EP4497440A1, “USE OF 7-TRIFLUOROMETHYL-7ALPHA,25-DIHYDROXYCHOLESTEROL IN THE TREATMENT AND MODULATION OF AUTOIMMUNE AND INFLAMMATORY DISEASES OF THE NERVOUS SYSTEM AND NEURODEGENERATIVE DISEASES” (Gdanski Uniwersytet Medyczny, priority 2023, dated 2025)
“Also recorded” adds a separate entry of the source.

What was measured:
[1] = test system: mouse organotypic cerebellar slices; assay: Remyelination of organotypic cerebellar slices after LPC demyelination (Mbp mRNA by quantitative PCR); assay type: cell-based; conditions: LPC 0.4 mg/ml, then treatment in serum-free culture medium for 14-16 days; barbadin 16 µM, 7α,25OHC 0.1 µM, NIBR189 10 µM; concentration of CF3-7α,25OHC not given; vs untreated LPC slices
Description: (§1) Organotypic cerebellar slices were sampled from ten-day old mice and then grown in an incubator for 14 days. After 14 days the myelin was chemically removed with LPC (0.4 mg/ml). Following the removal of the myelin sheaths, the slices were treated with: • 1. the control group: regular culture medium, without LPC • 2. LPC, then on serum-free culture medium for 14-16 days • 3. LPC followed by barbadin 16 µM in serum-free culture medium for 14-16 days • 4. LPC followed by 7α,25OHC 0.1 µM in serum-free culture medium for 14-16 days • 5. LPC followed by NIBR189 10 µM in serum-free culture medium for 14-16 days • 6. LPC followed by barbadin 16 µM + 7α,25OHC 0.1 µM in serum-free culture medium for 14-16 days
Once the experiment was completed (remyelination for 14-16 days) the slices were collected and MBP mRNA levels were measured by the PCR quantitative method. In the mouse organotypic cerebellar slices in which myelin sheaths were chemically removed with lysophosphatidylcholine (LPC) spontaneous myelin regeneration took place except for the slices treated with a selective EBI2 receptor antagonist (NIBR189). The results once again reveal key significance of EBI2 intracellular signalling for myelin regeneration. […] Barbadin, which inhibits internalisation of the EBI2 receptor, is necessary to achieve the therapeutic effect (faster remyelination) in the case of non-modified oxysterol (Fig 1 and Fig 2a).

Ch25h = assay: mRNA level of oxysterol-synthesizing enzyme in organotypic cerebellar slices; assay type: cell-based, mouse; conditions: slices first treated with LPC and then with 7α,25OHC
Description: as §1
(§2) Measurement of the mRNA level of the Ebi2 receptor and of the enzymes synthesizing (Ch25h, Cyp7b1) and degrading (Hsd3b7) the natural ligand 7α,25OHC in organotypic cerebellar slices treated with non-modified oxysterol 7α,25OHC (Fig 5) (tissue and treatments as in Fig 1 and Fig 2a) and in cerebella of the mice subject to the cuprizone model, treated with modified oxysterol CF3-7α,25OHC (Fig 6). LPC treatment modulates enzymes which synthesise and degrade the natural oxysterol 7α,25OHC.

Ebi2 receptor = assay: Ebi2 mRNA level in organotypic cerebellar slices; assay type: cell-based, mouse; conditions: slices first treated with LPC and then with 7α,25OHC
Description: as §1, §2

[2] = mice, subcutaneous or intraperitoneal injection, elimination from blood; cited from earlier work
white blood cells = assay: Cuprizone model: blood morphology (white blood cell counts); assay type: in vivo, mice; conditions: after 14 days of treatment in the cuprizone model; CF3-7α,25OHC 20 mg/kg s.c., barbadin 0.3 mg/kg i.p.; compared to vehicle group #3
Description: C (Fig 7) or #3 (Fig 8 and 9) vehicle control group - the mice were fed with chow containing cuprizone for 9 weeks, and then with regular chow without cuprizone for another 2 weeks. Over the 2 weeks on regular chow the mice in the vehicle control group were first injected vehicle #1: DMSO (intraperitoneal injection), 150 µl once a day, and then vehicle #2: canola oil, subcutaneously, 150 µl once a day.
#4 (Fig 8 and 9) barbadin control group - the mice were fed with chow containing cuprizone for 9 weeks, and then with regular chow without cuprizone for another 2 weeks. Over the 2 weeks on regular chow the mice in the group were injected barbadin 0.3 mg/kg, intraperitoneally, 150 µl once a day, and then vehicle #2: canola oil, subcutaneously, 150 µl once a day.
E (Fig 7) or #5 experimental group with oxysterol CF3-7α,25OHC - the mice were fed with chow containing cuprizone for 9 weeks, and then with regular chow without cuprizone for another 2 weeks. Over the 2 weeks on regular chow the mice in the group were injected vehicle #1: DMSO, intraperitoneally, 150 µl once a day, and CF3-7α,25OHC, dose: 20 mg/kg, subcutaneously, 150 µl once a day.
#6 (Fig 8 and 9) experimental group with barbadin + oxysterol CF3-7α,25OHC - the mice were fed with chow containing cuprizone for 9 weeks, and then with regular chow without cuprizone for another 2 weeks. Over the 2 weeks on regular chow the mice in the group were injected barbadin, 0.3 mg/kg, intraperitoneally, 150 µl once a day, and then one hour following the barbadin injection they were injected CF3-7α,25OHC, dose: 20 mg/kg, subcutaneously, 150 µl once a day.
The blood from the heart was sampled after the mice had been euthanised, and blood morphology test was performed using a standard diagnostic analyser. […] The lymphocyte count in peripheral blood of the mice which had been injected with CF3-7α,25OHC was lower by 50% compared to the control group of mice injected with vehicles (gr. #3 or C). The specific action of CF3-7α,25OHC leading to reduction of the lymphocyte count in blood finds confirmation in the results obtained for the mice of groups #4 (or D) and #6 (or F). Compared to the control group, the lymphocyte count in blood in the group of mice injected with barbadin (#4 or D) was lower only by 21%, and in the group of mice injected with barbadin + CF3-7α,25OHC by 7%. Following interaction with CF3-7α,25OHC, barbadin blocks internalisation of the EBI2 receptor from the cell membrane. The absence of any significant effect related to the treatment with barbadin or barbadin + CF3-7α,25OHC indicates a specific action of CF3-7α,25OHC on the EBI2 receptor and the consequential effects of that action, namely reduction of the count of circulating lymphocytes in blood. Moreover, the number of monocytes in group #5 (or E: mice treated with CF3-7α,25OHC) was lower by as much as 66% and the total leukocyte count (lymphocytes and monocytes included) was also substantially lower (by 51%), though only in the group of mice injected with CF3-7α,25OHC. In our subsequent in vivo tests (short-term pharmacology) we confirmed the action of CF3-7α,25OHC. In that test, too, it reduced the count of white blood cells. CF3-7α,25OHC reduces the lymphocyte count as early as following the 4 mg/kg dose and the effect lasts for 24 hours following administration.

[3] = test system: pro-inflammatory cytokine IL1β; assay: Cuprizone model: IL1β mRNA in cerebellum lysates by PCR; conditions: cerebellum lysates, cuprizone model; versus the group treated solely with vehicles
Description: Identifying the mRNA levels of pro-inflammatory cytokine IL1β in mouse cerebellum lysates (Fig 11).

| level of Ch25h (Ch25h) | Structure (SMILES) | remyelination (Mbp expression) [1] | Ebi2 expression (Ebi2 receptor) | half-life [2] | drop in lymphocytes (lymphocyte count in peripheral blood lower by) (white blood cells) | mRNA level of IL1β went up by [3] |
| --- | --- | --- | --- | --- | --- | --- |
| reduces the level of Ch25h | C[C@H](CCCC(C)(C)O)[C@H]1CC[C@H]2[C@@H]3[C@H](O)C=C4C[C@@H](O)CC[C@]4(C)[C@H]3CC[C@]12C [7α,25OHC] | do not remyelinate quicker than ones not subject to any treatment; also recorded: do not remyelinate faster than the untreated slices | reduces the expression level of receptor EBI2; also recorded: does not increase its expression; also recorded: does not increase Ebi2 expression | ca. 30 minutes | – | – |
| – | COc1ccc(C(=O)N2CCN(C(=O)/C=C/c3ccc(Br)cc3)CC2)cc1 [NIBR189, (2E)-3-(4-bromophenyl)-1-(4-(4-methoxybenzyoil)-1-piperazine)-2-propen-1-on] | do not remyelinate | – | – | – | – |
| – | Nn1cnc2scc(-c3ccc(Cc4ccccc4)cc3)c2c1=O [barbadin, reference compound] | – | – | – | 21% | 2% |
